{"source": "patent US11629133B2", "about": "“Perfluoroaminoolefins and methods of making and using the same” (3M INNOVATIVE PROPERTIES COMPANY, priority 2018, dated 2023)", "assay_type_in_all_cases": "physicochemical", "key": {"[1]": {"assay": "Pour point, determined visually", "details": "lowest temperature at which sample flows within 5 sec held horizontally", "protocol": "[…] of the sample was placed in a vial and cooled in a liquid nitrogen-cooled pentane bath until it solidified. The sample was then allowed to warm slowly in the pentane bath by removal of the liquid nitrogen cooling source (typically an increase of 1-2° C./minute) and observed every 3-5° C."}, "[2]": {"assay": "Thermal stability of PE-1 with absorbents, purity by GC-FID", "protocol": "GC-FID analysis was carried out on an Agilent Technologies 7890B GC System (Santa Clara Calif.) equipped with a Restek RtX-200 gas chromatography column (Bellefonte, Pa.) and helium carrier gas. Once material was injected into the column, the following temperature sequence was executed: 5 min hold at 40° C., 10° C./minute temperature increase over the span of 21 min to reach a final temperature of 250° C., and then a 15 min hold at 250° C. Data analysis by use of Agilent Open LAB CDSA ChemStation software enabled the determination of product purities and GC yields.\nThermal stability was measured by charging 1.0 g of PE-1 into glass vials and then adding a weighed amount of absorbent. The samples were stirred for 24 hours at 60° C., allowed to cool, and then analyzed by GC-FID for decomposition and purity changes."}, "[3]": {"assay": "Dielectric constant per ASTM D150-11", "details": "measured at 1 kHz", "protocol": "The dielectric constant (tested per ASTM D150-11) of PE-1 was measured. The dielectric constant measured at 1 kHz was 1.98."}}, "data": [{"molecule": "FC1=C(N2C(F)(F)C(F)(F)C(F)(F)C2(F)F)C(F)(F)C(F)(F)C(F)(F)C1(F)F", "note": "[PE-1, 2,2,3,3,4,4,5,5-octafluoro-1-(perfluorocyclohex-1-en-1-yl)pyrrolidine]", "values": [{"measurement": "Pour point", "setting": "[1]", "value": "−34", "unit": "°C"}, {"measurement": "Purity, %", "setting": "[2]; 4 Angstrom Molecular Sieves, stirred 24 hours at 60° C.", "value": 97.3, "unit": "%"}, {"measurement": "Purity, %", "setting": "[2]; Activated Carbon, stirred 24 hours at 60° C.", "value": 97.7, "unit": "%"}, {"measurement": "Purity, %", "setting": "[2]; Basic Alumina, stirred 24 hours at 60° C.", "value": 97.6, "unit": "%"}, {"measurement": "Purity, %", "setting": "[2]; K2CO3, stirred 24 hours at 60° C.", "value": 97.6, "unit": "%"}, {"measurement": "Purity, %", "setting": "[2]; No Absorbent, stirred 24 hours at 60° C.", "value": 97.7, "unit": "%"}, {"measurement": "Purity, %", "setting": "[2]; Silica Gel, stirred 24 hours at 60° C.", "value": 97.7, "unit": "%"}, {"measurement": "dielectric constant", "setting": "[3]", "value": 1.98}]}, {"molecule": "FC1=C(N2C(F)(F)C(F)(F)C(F)(F)C2(F)F)C(F)(F)C(F)(F)C1(F)F", "note": "[PE-2, 2,2,3,3,4,4,5,5-octafluoro-1-(perfluorocyclopent-1-en-1-yl)pyrrolidine]", "values": [{"measurement": "Pour point", "setting": "[1]", "value": "−33", "unit": "°C"}]}, {"molecule": "FC1=C(N2C(F)(F)C(F)(F)OC(F)(F)C2(F)F)C(F)(F)C(F)(F)C1(F)F", "note": "[PE-3, 2,2,3,3,5,5,6,6-octafluoro-4-(perfluorocyclopent-1-en-1-yl)morpholine]", "values": [{"measurement": "Pour point", "setting": "[1]", "value": "−49", "unit": "°C"}]}, {"molecule": "2,2,3,3,4,4,5,5-octafluoro-1-(perfluoropent-2-en-3-yl)pyrrolidine and 2,2,3,3,4,4,5,5-octafluoro-1-(perfluoropent-2-en-2-yl)pyrrolidine [PE-4]", "values": [{"measurement": "Pour point", "setting": "[1]", "value": "−90", "unit": "°C"}]}]}
